This note sets out measurements from patent US10245261B2, “Substituted indol-5-ol derivatives and their therapeutic applications” (NantBioScience, Inc., priority 2013, dated 2019).

Structures are written as SMILES. Where two headings read alike, the source gives them in different places.

One data set deals with Abl (M351T)(h) (Homo sapiens, UniProt P00519, M351T). The experiment in a line: KinaseProfiler kinase assay. The class given is biochemical.
Another data set addresses Abl(T315I)(h) (Homo sapiens, UniProt P00519, T315I). The experiment in a line: KinaseProfiler kinase assay. The class given is biochemical.
For another data set, the target named is T1, Flt3(h) (Homo sapiens, UniProt P36888).
T1 sequence (P36888 27-993): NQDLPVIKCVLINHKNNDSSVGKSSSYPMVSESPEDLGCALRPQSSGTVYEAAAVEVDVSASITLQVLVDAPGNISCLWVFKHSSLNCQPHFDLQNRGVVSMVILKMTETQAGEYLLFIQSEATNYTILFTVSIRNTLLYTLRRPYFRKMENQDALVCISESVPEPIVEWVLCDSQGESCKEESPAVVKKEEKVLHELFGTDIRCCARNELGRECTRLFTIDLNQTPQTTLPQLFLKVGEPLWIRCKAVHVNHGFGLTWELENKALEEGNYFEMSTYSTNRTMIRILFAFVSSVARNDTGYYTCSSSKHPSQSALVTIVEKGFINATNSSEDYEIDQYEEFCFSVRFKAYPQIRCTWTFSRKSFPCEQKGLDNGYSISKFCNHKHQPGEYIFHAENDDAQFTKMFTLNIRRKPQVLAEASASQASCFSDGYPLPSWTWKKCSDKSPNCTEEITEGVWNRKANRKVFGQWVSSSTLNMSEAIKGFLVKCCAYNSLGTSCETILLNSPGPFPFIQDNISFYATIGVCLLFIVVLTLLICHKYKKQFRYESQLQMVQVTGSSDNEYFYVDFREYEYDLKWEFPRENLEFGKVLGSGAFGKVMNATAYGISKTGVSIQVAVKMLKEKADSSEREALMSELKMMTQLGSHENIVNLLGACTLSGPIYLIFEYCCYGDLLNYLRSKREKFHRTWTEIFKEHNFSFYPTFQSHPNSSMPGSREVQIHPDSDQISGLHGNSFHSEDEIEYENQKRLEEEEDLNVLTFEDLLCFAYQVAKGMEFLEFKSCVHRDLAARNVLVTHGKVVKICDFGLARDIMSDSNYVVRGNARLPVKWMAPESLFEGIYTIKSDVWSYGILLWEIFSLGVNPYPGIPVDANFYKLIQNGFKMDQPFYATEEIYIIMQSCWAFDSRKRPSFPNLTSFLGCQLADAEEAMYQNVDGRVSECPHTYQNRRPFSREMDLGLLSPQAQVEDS
Description: KinaseProfiler kinase assay. The class given is biochemical. In a few lines: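 Using a filter-binding 33P format, reactions initiated by MgATP addition proceeded 40 min at room temperature before a 3% phosphoric acid stop. Filtermats were washed three times in 50 mM phosphoric acid and once in methanol, dried and counted.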

In data set [1] the test system is human MV411 human acute myelogenous leukemia (AML) xenograft. Description: AML xenograft model in female SCID mice. The class given is in vivo, mouse. The procedure:
The objective of the first study was to evaluate antitumor activities of the novel multiple-kinase inhibitor NTW-3475 against human MV411 human acute myelogenous leukemia (AML) xenograft model in female SCID mice.
Four or six animals were randomly assigned to each study group. Each animal was injected subcutaneously in the left and right flank area with 0.1 ml of 1.0×10^8 MV411 cells per mL.
Each test or control animal was placed on a 5-day on, two-day off for two cycles of vehicle negative control or 25, 50 mg/kg of NTW-3475. Tumor growth was measured with a digital hand held caliper twice weekly (once tumor emerges) prior to the first dosing and then two to three times weekly until euthanized. Animals were weighed prior to tumor cell injection, prior to dosing, two to three times weekly with tumor growth measurements, and prior to euthanasia.
The objective of the first study was to evaluate antitumor activities of the novel multiple-kinase inhibitor Compounds 11, 68, and 82 against human MV411 human acute myelogenous leukemia (AML) xenograft model in female SCID mice.
Each test or control animal was placed on a 5-day on, two-day off for two cycles of vehicle negative control or 25, 50 mg/kg of compound. Tumor growth was measured with a digital hand held caliper twice weekly (once tumor emerges) prior to the first dosing and then two to three times weekly until euthanized. Animals were weighed prior to tumor cell injection, prior to dosing, two to three times weekly with tumor growth measurements, and prior to euthanasia.

The subject of data set [2] is human K562 chronic myelogenous leukemia (CML) xenograft. The experiment in a line: CML xenograft model in female SCID mice. The class given is in vivo, mouse. As to the method: The objective of the second study was to evaluate antitumor activities of novel multiple-kinase inhibitor NTW-3475 in human K562 chronic myelogenous leukemia (CML) xenograft model in female SCID mice.
Four to six animals were randomly assigned to study groups. Each animal was weighed, and then injected subcutaneously in the left and right flank area with 0.1 ml of 8.0×10^7 K562 cells per mL.
Each test or control animal was on a 5-day on, two-day off for two cycles treatment schedule. Tumor growth was measured with a digital hand held caliper twice weekly (once tumor emerges) prior to the first dosing and then two to three times weekly until euthanized. Animals were weighed prior to tumor cell injection, prior to dosing, two to three times weekly with tumor growth measurements, and prior to euthanasia.
This example illustrated antitumor activities of Compound 10 and 11 in human K562 chronic myelogenous leukemia (CML) xenograft model in female SCID mice.
On the appropriate days, each animal in an appropriate group will receive a specific amount of test article either at 75 or 100 mg/kg, and the dosing volume is 10 ml/kg by oral gavage as indicated. Dosing schedule will be once daily for 10 days (qd×10, 5 days on and 2 days off for 2 cycles).

On to `C/C=C/c1cc(Nc2cc(N3CCN(C)CC3)nc(Oc3ccc4[nH]c(C)cc4c3F)n2)n[nH]1` [Compound 53], for which the IC50 against Abl (M351T)(h) (Abl(M351T)) came to 0.7 nM; at Abl(T315I)(h) (Abl(T315I)) it was 0.5 nM; on Flt3(h) (Flt3, read-out: IC50), 13 nM. The inhibition at 1 µM at Flt3(h) was 99%.

As to `C/C=C/c1cc(Nc2cc(N3CCN(CCO)CC3)nc(Oc3cc(F)c4[nH]c(C)cc4c3F)n2)n[nH]1` [Compound 88], the inhibition at 1 µM on Flt3(h) was determined as 100%. At Flt3(h) (read-out: IC50 (nM) Flt3 (h)), the 50% inhibitory concentration (IC50) was found to be 8 nM.

Consider `Cc1cc2c(F)c(Oc3nc(Nc4cc(C5CC5)[nH]n4)cc(N4CCNCC4)n3)cc(F)c2[nH]1` [Compound 82], for which the inhibition at 1 µM against Flt3(h) is 100%. In addition, the IC50 at Flt3(h) (read-out: IC50 (nM) Flt3 (h)) was found to be 6 nM. For the same compound, in data set [1], the anti-tumor effect entry was “strong anti-tumor effect” and the body weight change entry is on record as “minimal body weight lost”.

In the case of `C/C=C/c1cc(Nc2cc(N3CCN(C)CC3)nc(Oc3cc(F)c4[nH]c(C)cc4c3F)n2)n[nH]1` [NTW-3456], the “kinase inhibition of T315I abl mutant” value on Abl(T315I)(h) is on record as “inhibits”. The anti-tumor effect result in data set [1] and in data set [2] was “significant anti-tumor activity” throughout.

For `Cc1cc2c(F)c(Oc3nc(Nc4cc(C5CC5)[nH]n4)cc(N4CCN(C)CC4)n3)ccc2[nH]1` [Compound 10], at Abl (M351T)(h), the inhibition at 0.1 µM was 99%. On Abl(T315I)(h), the inhibition at 0.1 µM worked out at 101%. At Flt3(h), the inhibition at 0.1 µM worked out at 101% and the inhibition at 1 µM was found to be 100%. In addition, the IC50 on Flt3(h) (read-out: IC50 (nM) Flt3 (h)) was 11 nM. In addition, in data set [2], the anti-tumor effect entry is on record as “strong anti-tumor effect” and the body weight change entry is listed as “no body weight lost”.

`Cc1cc2c(F)c(Oc3nc(Nc4cc(C5CC5)[nH]n4)cc(N4CCNCC4)n3)ccc2[nH]1` [Compound 11, N-(5-cyclopropyl-1H-pyrazol-3-yl)-2-((4-fluoro-2-methyl-1H-indol-5-yl)oxy)-6-(piperazin-1-yl)pyrimidin-4-amine]: the inhibition at 0.1 µM on Abl (M351T)(h) worked out at 102%; at Abl(T315I)(h), 102%; on Flt3(h), 98%. At Flt3(h), the inhibition at 1 µM was 100%. Also, the IC50 on Flt3(h) (read-out: IC50 (nM) Flt3 (h)) stood at 12 nM. In addition, the anti-tumor effect result in data set [1] and in data set [2] was “strong anti-tumor effect” each time. For the same compound, the values for the body weight change entry in data set [1] and in data set [2] were “minimal body weight lost” and “no body weight lost”, respectively.

Regarding `C/C=C/c1cc(Nc2cc(N3CCNCC3)nc(Oc3ccc4[nH]c(C)cc4c3F)n2)n[nH]1` [Compound 68], the inhibition at 1 µM on Flt3(h) was 100%. For the same compound, the concentration for half-maximal inhibition (IC50) on Flt3(h) (read-out: IC50 (nM) Flt3 (h)) turned out to be 4 nM. Moreover, in data set [1], the anti-tumor effect entry is recorded as “strong anti-tumor effect” and the body weight change entry is given as “minimal body weight lost”.
